Test results as given in patent publication US20230312643A1, “PEPTIDE DERIVATIVE WITH COLLAGENASE INHIBITORY ACTIVITY, AND USE THEREOF” (SUNMARINE BIOTECH, priority 2020, published 2023).

Assays:
elastase = molecular target: T1, elastase (Sus scrofa, UniProt P00772); assay: Elastase inhibitory activity (EnzChek Elastase Assay Kit, DQ elastin); assay type: biochemical; details: for inhibition at 20 µg/mL: 0.02 mg/ml; for inhibition at 40 µg/mL: 0.04 mg/ml; for inhibition at 60 µg/mL: 0.06 mg/ml
T1 construct: purchased Invitrogen
T1 sequence (P00772 27-266): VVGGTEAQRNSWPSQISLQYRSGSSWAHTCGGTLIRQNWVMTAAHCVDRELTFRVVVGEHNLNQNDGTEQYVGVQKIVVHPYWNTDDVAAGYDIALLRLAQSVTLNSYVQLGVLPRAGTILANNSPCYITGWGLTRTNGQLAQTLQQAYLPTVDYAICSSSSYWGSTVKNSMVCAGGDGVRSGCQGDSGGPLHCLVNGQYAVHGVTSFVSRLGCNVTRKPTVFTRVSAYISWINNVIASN
Method: Elastase inhibitory activity was performed by purchasing EnzChek® Elastase Assay Kit (600 Assays) reagent from Invitrogen. First, DQ elastin stock solution (1 mg/ml) was prepared by adding 1.0 ml of DDW to 1 mg DQ elastin vial. The 18 ml of DDW was added to 2 ml of 10× reaction buffer, so as to dilute reaction buffer. Then, an elastase enzyme reagent was prepared, and diluted with reaction buffer to a final concentration of 0.2 U/ml as working solution. Three samples of 50 ? each were prepared in a 96-well plate. The 50 ? of reaction buffer was added to 50 ? of DQ elastin and sample blank, and 50 ? of working solution was added to a sample, which were then left in a light-blocked state at room temperature for about one hour, and then fluorescence intensity was measured at excitation wavelength 505 nm and emission wavelength 515 nm using ELISA plate reader (VICTOR X3™, PerkinElmer, US).
Copper peptide (Comparative Example 12) and EGCg (Comparative Example 13), which is widely used as a raw material for functional cosmetics, were prepared at the same concentration and used as a positive control.
EGCg (epigallocatechin gallate) is a kind of polyphenol, which is an extract of green tea leaves, and is used as a cosmetic raw material for anti-oxidation, inflammation reduction, and wrinkle alleviation, and Copper peptide is used as a raw material for promoting wound healing, strengthening skin elasticity, and increasing subcutaneous fat layer to suppress skin aging due to excellent skin regeneration ability.

gelatinase = assay: Gelatinase inhibitory activity (EnzChek Gelatinase/Collagenase Assay Kit, DQ gelatin); assay type: biochemical
Method: Gelatinase is an enzyme which plays a major role in promoting skin aging by more finely degrading collagen fragments digested by MMP-1 with MMP-2, and wrinkle reduction activity was determined by measuring the inhibitory activity of the enzyme.
(§1) Gelatinase inhibitory activity was performed by purchasing EnzChek® Gelatinase/Collagenase Assay Kit (250-2000 Assays) reagent from Invitrogen. First, DQ gelatin stock solution (1 mg/ml) was prepared by adding 1.0 ml of DDW to 1 mg DQ gelatin vial. The 18 ml of DDW was added to 2 ml of 10× reaction buffer, so as to dilute reaction buffer. Then, a gelatinase enzyme reagent was prepared, and diluted with reaction buffer to a final concentration of 0.2 U/ml as working solution. Three samples of 50 ? each were prepared in a 96-well plate. The 30 ? of reaction buffer was added to 20 ? of DQ gelatin and sample blank, and 30 ? of working solution was added to a sample, which were then left in a light-blocked state at room temperature for about one to two hours, and then fluorescence intensity was measured at excitation wavelength 485 nm and 535 nm using ELISA plate reader (VICTOR X3™, PerkinElmer, US).

MMP1 protein (pdb1cgl) [1] = molecular target: T2, MMP1 protein (pdb1cgl) (Homo sapiens, UniProt P03956); assay: Molecular docking (SYBYL-X 2.1.1, Surflex-Dock 2.7) of binding affinity to collagenase; details: from Surflex-Dock total score
T2 sequence (P03956 101-269 limits assumed): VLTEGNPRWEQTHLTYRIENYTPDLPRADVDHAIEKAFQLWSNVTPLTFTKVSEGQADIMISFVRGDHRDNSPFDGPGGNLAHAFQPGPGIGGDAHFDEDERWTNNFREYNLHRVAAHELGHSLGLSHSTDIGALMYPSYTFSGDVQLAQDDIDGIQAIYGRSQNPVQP
Method: Molecular modeling was conducted through a computer simulation program.
Target structure: MMP1 protein (pdb1cgl)
Software: SYBYL-X 2.1.1, Surflex-Dock2.7
Through a computer simulation program, a study was conducted on how to promote collagenase enzyme inhibitory activity and percutaneous absorption during peptide modification.
Total score is a value indicating the degree of binding affinity of a docked structure including a crash and a polar interaction in the unit of pKd, and the larger the value, the higher the binding affinity. And, the similarity is a value comparing the similarity with the structure already bonded to the 1cgl, and means that the closer to 1, the more similar. The result of such docking means that the addition of an appropriate modification residue through a docking simulation of computer chemistry may increase the binding affinity and similarity.
However, when compared with the overall consensus score, a binding affinity similar to or higher than that of pdb1cgl_ligand may be expected, particularly in the modified GPN and PGN, too.

[2] = HaCaT cytotoxicity test (MTS cell viability); assay type: cell-based; details: human, HaCaT cells (skin epidermal cells); for viability at 24 h, 1 µg/mL: 1 μg/ml; for viability at 24 h, 10 µg/mL: 10 μg/ml; for viability at 24 h, 50 µg/mL: 50 μg/ml; for viability at 24 h, 100 µg/mL: 100 μg/ml
Method: HaCaT cells, skin epidermal cells (derived from human), were used. The medium was DMEM low (SH30021.01, HyClone™, Logan, UT, USA) medium containing 10% fetal bovine serum (FBS, Lonza, Valais, Switzerland) medium. The cell lines were cultured in an incubator adjusted to 95% humidity, 5% CO2 and 37° C., and at this time, a medium antibiotic (Penicillin streptomycin, Gibco, Calif., USA) was used to suppress contamination or proliferation of microorganisms. When the cells covered the dish about 80%, the cells were washed with phosphated-buffered saline-EDTA (PBS-EDTA), and then the cells attached to the bottom of the dish were detached by treating with 1 ml of 0.05% trypsin EDTA, and subjected to subculture. The medium was exchanged every 48 hours to culture the cells.
Cell viability was measured using MTS (CellTiter 96® AQueous One Solution Cell Proliferation Assay, Promega, USA) reagent. The cells were divided at a concentration of 1×10^4 cells/well in a 96-well plate and then stabilized for 24 hours in an incubator controlled to 95% humidity, 5% CO2 and 37° C. After that, the samples were treated for each concentration (table 1) and cultured for 24 hours in an incubator controlled to 95% humidity, 5% CO2 and 37° C. After the medium was removed, 9 ml of medium (DMEM low, free FBS) was added to 1 ml of the reagent and diluted, and then 100 ul of the diluted solution was treated per well. After the reaction at 37° C. for 60 minutes, absorbance was measured at 490 nm with microplate reader (Molecular Devices, VersaMax ELISA Microplate Reader, USA). Cell viability was represented by absorbance of a sample-treated group compared to a control group not treated with the sample.

[3] = HS68 cytotoxicity test (MTS cell viability); assay type: cell-based; details: human, HS68 cells (skin fibroblasts); for viability at 24 h, 1 µg/mL: HS68, 1 μg/ml; for viability at 24 h, 10 µg/mL: HS68, 10 μg/ml; for viability at 24 h, 100 µg/mL: HS68, 100 μg/ml; for viability at 24 h, 50 µg/mL: HS68, 50 μg/ml
Method: (§2) Skin fibroblast HS68 cells were used. The medium was DMEM high glucose (SH30243.01, HyClone™, Logan, UT, USA) medium containing 10% fetal bovine serum (FBS, Lonza, Valais, Switzerland) medium. The cell lines were cultured in an incubator adjusted to 95% humidity, 5% CO2 and 37° C., and at this time, a medium antibiotic (Penicillin streptomycin, Gibco, Calif., USA) was used to suppress contamination or proliferation of microorganisms.
(§3) Cell viability was measured using MTS (CellTiter 96® AQueous One Solution Cell Proliferation Assay, Promega, USA) reagent. The cells were divided at a concentration of 1×10^4 cells/well in a 96-well plate and then stabilized for 24 hours in an incubator controlled to 95% humidity, 5% CO2 and 37° C. After that, the samples were treated for each concentration and cultured for 24 hours in an incubator controlled to 95% j humidity, 5% CO2 and 37° C. After the medium was removed, 9 ml of medium (DMEM high, free FBS) was added to 1 ml of the reagent and diluted, and then 100 ul of the diluted solution was treated per well. After the reaction at 37° C. for 60 minutes, absorbance was measured at 490 nm with microplate reader (Molecular Devices, VersaMax ELISA Microplate Reader, USA). Cell viability was represented by absorbance of a sample-treated group compared to a control group not treated with the sample.

HS68 cells = assay: HS68 cytotoxicity test (MTS cell viability); assay type: cell-based; details: HS68, 50 μg/ml, 24 hours
Method: as §2, §3

MMP1 protein (pdb1cgl) [4] = molecular target: T2, MMP1 protein (pdb1cgl); details: ligand binding to pdb; cited from earlier work
collagenase = assay: Collagenase inhibitory activity (EnzChek Gelatinase/Collagenase Assay Kit, DQ collagen); assay type: biochemical
Method: as §1, with “Collagenase inhibitory activity” for “Gelatinase inhibitory activity”, “First, DQ collagen stock solution” for “First, DQ gelatin stock solution”, “mg DQ collagen vial. The” for “mg DQ gelatin vial. The”, “Then, a collagenase enzyme reagent” for “Then, a gelatinase enzyme reagent”, “of DQ collagen and sample” for “of DQ gelatin and sample”, “nm and emission wavelength 535 nm” for “nm and 535 nm”
As a positive control, copper peptide (Comparative Example 12), which is a representative peptide widely used as a raw material for functional cosmetics, was prepared at the same concentration and used. Copper peptide has excellent skin regeneration ability and thus is used as a raw material to suppress skin aging by promoting wound healing, strengthening skin elasticity, and increasing subcutaneous fat layers.

SMILES | binding affinity compared to 1cgl ligand (MMP1 protein (pdb1cgl) [1]) | inhibition at 20 µg/mL (elastase) [%] | inhibition at 40 µg/mL (elastase) [%] | inhibition at 60 µg/mL (elastase) [%] | inhibition at 100 µg/mL (elastase; 0.1 mg/ml) [%] | viability at 24 h, 1 µg/mL [2] [%] | viability at 24 h, 10 µg/mL [2] [%] | viability at 24 h, 50 µg/mL [2] [%] | viability at 24 h, 100 µg/mL [2] [%] | viability at 24 h, 1 µg/mL [3] [%] | viability at 24 h, 10 µg/mL [3] [%] | viability at 24 h, 100 µg/mL [3] [%] | also measured
O=C(O[C@@H]1Cc2c(O)cc(O)cc2O[C@@H]1c1cc(O)c(O)c(O)c1)c1cc(O)c(O)c(O)c1 [EGCg, epigallocatechin gallate, reference compound] |  |  |  |  |  |  |  |  |  |  |  |  | elastase inhibitory activity (elastase; 0.1 mg/ml): 66.1 ± 4.4%; elastase inhibitory activity (elastase; 1 mg/ml): 66.1%; Gelatinase inhibitory activity (gelatinase; 0.5 mg/ml): 74.7%
CCCC(=O)C(CC(N)=O)NC(=O)C1CCCN1C(=O)CNC (centres unmarked) [Me-GPN-Propyl] | 74.7% |  |  |  |  |  |  |  |  |  |  |  | increase of binding affinity compared to before the modification (MMP1 protein (pdb1cgl) [1]): 21.9%
CN1CCC[C@H]1C(=O)NCC(=O)N[C@@H](CC(N)=O)C(=O)O [Me-PGN] |  | 5.2 ± 1.7 | 6.9 ± 1.8 | 9.9 ± 1.5 | 11.2 ± 1.1 | 125 ± 6.1 | 127 ± 6.5 | 122 ± 3.7 | 126 ± 14.8 | 103 ± 3.9 | 104 ± 4.5 | 104 ± 5.6 | inhibition at 1000 µg/mL (elastase; 1 mg/ml): 11.2%; Cell viability (HS68 cells): 103 ± 3.4%
COC(=O)NCC[C@@H](N[C@@H](CC(C)C)C(=O)N[C@@H](Cc1ccccc1)C(=O)NCCN1CCOCC1)C(=O)O [PDB 1CGL] |  |  |  |  |  |  |  |  |  |  |  |  | Ki (MMP1 protein (pdb1cgl) [4]): 0.135 µM
CCCOC(=O)[C@H](CC(N)=O)NC(=O)CNC(=O)[C@@H]1CCCN1 [PGN-OPr, PGN(Pro-Gly-Asn)-OPr] |  | 17.3 ± 1.1 | 27.5 ± 2.5 | 34.2 ± 0.5 | 77.6 ± 2.8 | 117 ± 9.6 | 126 ± 14.1 | 130 ± 13.3 | 128 ± 5.3 | 107 ± 2.4 | 107 ± 8.9 | 116 ± 3.6 | Collagenase inhibitory activity (collagenase; 0.05 mg/ml): 5.7 ± 3.1%; Collagenase inhibitory activity (collagenase; 0.1 mg/ml): 14.3 ± 5.2%; Collagenase inhibitory activity (collagenase; 0.5 mg/ml): 67.1 ± 0.8%; Collagenase inhibitory activity (collagenase; 1 mg/ml): 98.7%; collagenase inhibitory activity IC50 (collagenase; FIGS. 5 and 6): 508 µg/mL; inhibition at 1000 µg/mL (elastase; 1 mg/ml): 77.6%; IC50 (elastase; FIGS. 8 and 9): 216 µM; Gelatinase inhibitory activity (gelatinase; 0.2 mg/ml): 16.9 ± 2.7%; Gelatinase inhibitory activity (gelatinase; 0.3 mg/ml): 54.2 ± 6.3%; Gelatinase inhibitory activity (gelatinase; 0.4 mg/ml): 96.4 ± 1.8%; Gelatinase inhibitory activity (gelatinase; 0.5 mg/ml): 98.9%; gelatinase inhibitory activity, times higher than that of Copper peptide (gelatinase; 0.5 mg/ml): ~15 times; gelatinase inhibitory activity, times higher than that of EGCg (gelatinase; 0.5 mg/ml): about 1.3 times; viability at 24 h, 50 µg/mL [3]: 115 ± 6.9%

Continued, in another order:

binding affinity compared to 1cgl ligand (MMP1 protein (pdb1cgl) [1]) | inhibition at 20 µg/mL (elastase) [%] | inhibition at 40 µg/mL (elastase) [%] | inhibition at 60 µg/mL (elastase) [%] | inhibition at 100 µg/mL (elastase; 0.1 mg/ml) [%] | SMILES | viability at 24 h, 1 µg/mL [2] [%] | viability at 24 h, 10 µg/mL [2] [%] | viability at 24 h, 50 µg/mL [2] [%] | viability at 24 h, 100 µg/mL [2] [%] | viability at 24 h, 1 µg/mL [3] [%] | viability at 24 h, 10 µg/mL [3] [%] | viability at 24 h, 100 µg/mL [3] [%] | also measured
about 51.8% |  |  |  |  | NCC(=O)N1CCC[C@H]1C(=O)N[C@@H](CC(N)=O)C(=O)O [GPN, Gly-Pro-Asn, reference compound] |  |  |  |  |  |  |  | 
90.1% |  |  |  |  | CCCC(=O)C(CC(N)=O)NC(=O)CNC(=O)C1CCCN1C (centres unmarked) [Me-PGN-Propyl] |  |  |  |  |  |  |  | increase of binding affinity compared to before the modification (MMP1 protein (pdb1cgl) [1]): 28.6%
 | 0.3 ± 0.9 | 1.2 ± 2.8 | 1.5 ± 2 | 5.2 ± 2.9 | CCCCCCCCCCCCCCCC(=O)N1CCC[C@H]1C(=O)NCC(=O)N[C@@H](CC(N)=O)C(=O)O [Pal-PGN] | 115 ± 10 | 112 ± 3.7 | 113 ± 7.7 | 108 ± 6.5 | 106 ± 2.9 | 111 ± 2.8 | 116 ± 3.3 | viability at 24 h, 50 µg/mL [3]: 105 ± 3.3%
